These are literature values, as cited in patent US20040122089A1, “Novel eicosanoid analgesics” (priority 2001, published 2004).

The target of series [1] is T1, rat or human VR1 (UniProt Q8NER1).
T1 construct: other: Xenopus oocytes or HEK cells over-expressing rat or human VR1
Particulars: Xenopus oocytes or HEK cells over-expressing rat or human VR1; read-out: VR1 EC50 (literature); cited from earlier work.

In series [2] the test system is anandamide membrane transporter (AMT). To be noted: RBL-2H3 cells; read-out: AMT IC50 (previously reported); cited from earlier work.
The next series has as its system mice. To be noted: cited from earlier work.
The subject of series [3] is rat or human VR1. To be noted: cited from earlier work.

As a reminder, the EC50 is the midpoint of the concentration-response curve. With `CCCCC/C=C\C/C=C\C/C=C\C/C=C\CCCC(=O)NCCO` [AEA, arachidonoylethanolamide], the EC50 on rat or human VR1 [1] was 1 to 5 µM.
By IC50 is commonly meant the concentration at which inhibition is half-maximal. For the compound `CCCCC/C=C\C/C=C\C/C=C\C/C=C\CCCC(=O)N[C@H](C)CO` [Met-AEA, (R)-1′-Methyl-2′-hydroxy-ethyl-arachidonamide], the IC50 in series [2] is 24.5 µM.
Regarding `CCCCC/C=C\C/C=C\C/C=C\C/C=C\CCCC(=O)NCc1ccc(O)c(OC)c1` [arvanil, N-[3-methoxy-4-hydroxy-benzyl]-arachidonamide], the IC50 in series [2] was 3.6 µM. Moreover, the “ED50 in the 'tetrad'” value with mice was 0.085 mg/kg. Also, the “fold more potent at VR1 than CB1 receptors” value with rat or human VR1 [3] was “approximately 500 fold”.
